Like-named read-outs stand apart in the source and are kept apart here.
What was measured:
[1] = tested on: subjects with acute urticaria; details: for Developed other symptoms: No / Developed other symptoms: Yes / Needed additional medication: No / Needed additional medication: Yes / Needed medication prescribed at discharge: No / Needed medication prescribed at discharge: No medication prescribed / Needed medication prescribed at discharge: Yes / Recurrence of allergic symptoms: No / Recurrence of allergic symptoms: Yes / Returned to normal activity: No / Returned to normal activity: Yes: ITT; for Patient-rated pruritus severity score, 2 Hour Change from Baseline, mean (primary efficacy measure): LOCF
[2] = injection; cited from earlier work
[3] = 24 hrs after discharge, count (percentage)
[4] = 48 hrs after discharge, count (percentage)
[5] = ITT Population, listed as diphenhydramine
[6] = ITT Population, before treatment
[7] = ITT Population, count (percentage)

Which results are given for CN(C)CCOC(c1ccccc1)c1ccccc1 [Diphenhydramine Injection]?
Developed other symptoms: No [1, 3]: 107 (79.26); Developed other symptoms: Yes [1, 3]: 22 (16.30); Needed additional medication: No [1, 3]: 94 (69.63); Needed additional medication: Yes [1, 3]: 35 (25.93); Needed medication prescribed at discharge: No [1, 3]: 39 (28.89); Needed medication prescribed at discharge: No medication prescribed [1, 3]: 21 (15.56); Needed medication prescribed at discharge: Yes [1, 3]: 69 (51.11); Recurrence of allergic symptoms: No [1, 3]: 58 (42.96); Recurrence of allergic symptoms: Yes [1, 3]: 71 (52.59); Returned to normal activity: No [1, 3]: 29 (21.48); Returned to normal activity: Yes [1, 3]: 100 (74.07); Developed other symptoms: No [1, 4]: 114 (84.44); Developed other symptoms: Yes [1, 4]: 13 (9.63); Needed additional medication: No [1, 4]: 101 (74.81); Needed additional medication: Yes [1, 4]: 26 (19.26); Needed medication prescribed at discharge: No [1, 4]: 31 (22.96); Needed medication prescribed at discharge: No medication prescribed [1, 4]: 20 (14.81); Needed medication prescribed at discharge: Yes [1, 4]: 76 (56.30); Recurrence of allergic symptoms: No [1, 4]: 74 (54.81); Recurrence of allergic symptoms: Yes [1, 4]: 53 (39.26); Returned to normal activity: No [1, 4]: 22 (16.30); Returned to normal activity: Yes [1, 4]: 105 (77.78); Course of subject-rated sedation scores after treatment ([1]; ITT Population): remained above baseline through discharge; Patient-rated pruritus severity score, 1 Hour Assessment, mean ([1]; ITT Population): 0.83; Patient-rated pruritus severity score, 1 Hour Change from Baseline, mean ([1]; ITT Population): −1.36; Patient-rated pruritus severity score, 2 Hour Assessment, mean ([1]; ITT Population): 0.70; Patient-rated pruritus severity score, Discharge Assessment, mean ([1]; ITT Population): 0.67; Patient-rated pruritus severity score, Discharge Change from Baseline, mean ([1]; ITT Population): −1.52; Physician-rated urticaria/erythema score, 1 Hour Assessment, mean ([1]; ITT Population): 1.42; Physician-rated urticaria/erythema score, 1 Hour Change from Baseline, mean ([1]; ITT Population): −0.42; Physician-rated urticaria/erythema score, 2 Hour Assessment, mean ([1]; ITT Population): 1.33; Physician-rated urticaria/erythema score, 2 Hour Change from Baseline, mean ([1]; ITT Population): −0.51; Physician-rated urticaria/erythema score, Discharge Assessment, mean ([1]; ITT Population): 1.33; Physician-rated urticaria/erythema score, Discharge Change from Baseline, mean ([1]; ITT Population): −0.51; Subject-rated sedation score, 1 Hour Assessment, mean ([1]; ITT Population): 1.10; Subject-rated sedation score, 1 Hour Change from Baseline, mean ([1]; ITT Population): 0.70; Subject-rated sedation score, 2 Hour Assessment, mean ([1]; ITT Population): 0.88; Subject-rated sedation score, 2 Hour Change from Baseline, mean ([1]; ITT Population): 0.49; Subject-rated sedation score, Discharge Assessment, mean ([1]; ITT Population): 0.86; Subject-rated sedation score, Discharge Change from Baseline, mean ([1]; ITT Population): 0.47; Time spent at the treatment center, Mean (SD) ([1]; ITT Population): 2.07 (1.112) Hours; Time spent at the treatment center, Median ([1]; ITT Population): 2.02 h; Patient-rated pruritus severity score, 2 Hour Change from Baseline, mean (primary efficacy measure) ([1]; ITT Population): −1.50; Patient-rated pruritus severity score, 2 Hour Change from Baseline, mean (primary efficacy measure) [1, 5]: −1.50 (0.984); Patient-rated pruritus severity score, Baseline Assessment, mean [1, 6]: 2.19; Physician-rated urticaria/erythema score, Baseline Assessment, mean [1, 6]: 1.84; Subject-rated sedation score, Baseline Assessment, mean [1, 6]: 0.39; Subjects who returned to the treatment center: No [1, 7]: 116 (85.93); Subjects who returned to the treatment center: Yes [1, 7]: 19 (14.07); Time spent at the treatment center, Mean (SD) [1, 5]: 2.1 (1.1) Hours; Effectively treated subjects, yes ([1]; Investigator's opinion, count (percentage)): 93 (68.89); Proportion of patients returning to any emergency department or clinic ([1]; clinical trials, treatment group): 14%; Subjects needed rescue drug, yes ([1]; count (percentage)): 37 (27.41); Pruritus treatment success, yes ([1]; score reduction of at least 1 unit at 2 hr, count (percentage)): 111 (82.22)

Which Hemolysis [2] does the source give for OCCOCCN1CCN(C(c2ccccc2)c2ccc(Cl)cc2)CC1 (stereo not shown) [hydroxyzine] here?
The Hemolysis was “significant problem”.
